These results are taken from article PMC4891385 (Clinical Drug Investigation, 2016).

Holding throughout (type): in vitro ADME
Data set [1] concerns the target T1, OAT1 (Homo sapiens, UniProt Q4U2R8).
T1 sequence (Q4U2R8 1-563): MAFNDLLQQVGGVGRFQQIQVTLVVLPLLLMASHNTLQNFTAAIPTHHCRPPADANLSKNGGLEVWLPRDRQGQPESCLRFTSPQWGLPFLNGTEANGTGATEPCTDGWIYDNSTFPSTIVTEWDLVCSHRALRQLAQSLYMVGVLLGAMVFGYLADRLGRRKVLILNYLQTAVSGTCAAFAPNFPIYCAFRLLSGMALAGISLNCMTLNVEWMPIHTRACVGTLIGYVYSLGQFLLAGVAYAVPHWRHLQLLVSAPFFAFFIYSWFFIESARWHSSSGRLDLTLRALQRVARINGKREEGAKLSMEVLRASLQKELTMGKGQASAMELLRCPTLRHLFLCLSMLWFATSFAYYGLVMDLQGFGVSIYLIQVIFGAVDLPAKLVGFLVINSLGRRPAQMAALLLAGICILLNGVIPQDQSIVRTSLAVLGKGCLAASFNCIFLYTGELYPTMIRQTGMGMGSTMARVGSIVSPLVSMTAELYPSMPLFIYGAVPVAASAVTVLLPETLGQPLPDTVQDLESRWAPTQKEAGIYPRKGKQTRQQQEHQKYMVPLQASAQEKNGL
The data set can be described thus: [14C]-lesinurad uptake, substrate test, OAT1 oocytes.

The target in data set [2] is T2, OAT3 (Homo sapiens, UniProt Q8TCC7).
T2 sequence (Q8TCC7 1-542): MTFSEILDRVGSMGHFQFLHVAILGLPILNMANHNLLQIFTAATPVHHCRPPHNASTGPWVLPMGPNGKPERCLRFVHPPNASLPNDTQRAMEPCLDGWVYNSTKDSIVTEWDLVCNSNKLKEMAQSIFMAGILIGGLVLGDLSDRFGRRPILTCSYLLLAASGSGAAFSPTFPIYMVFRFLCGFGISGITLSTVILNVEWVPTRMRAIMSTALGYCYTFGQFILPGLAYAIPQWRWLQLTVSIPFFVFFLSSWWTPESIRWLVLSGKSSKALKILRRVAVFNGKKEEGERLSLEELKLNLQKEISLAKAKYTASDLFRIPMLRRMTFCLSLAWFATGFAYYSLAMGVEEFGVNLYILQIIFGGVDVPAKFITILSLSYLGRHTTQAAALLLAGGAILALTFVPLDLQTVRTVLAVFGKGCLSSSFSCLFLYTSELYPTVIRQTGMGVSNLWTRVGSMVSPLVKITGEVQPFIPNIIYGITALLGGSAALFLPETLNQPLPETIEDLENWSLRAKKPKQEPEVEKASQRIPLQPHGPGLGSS
The data set can be described thus: [14C]-lesinurad uptake, substrate test, OAT3 oocytes.

Data set [3] concerns the target T3, OCT2 (Homo sapiens, UniProt O15244).
T3 sequence (O15244 1-555): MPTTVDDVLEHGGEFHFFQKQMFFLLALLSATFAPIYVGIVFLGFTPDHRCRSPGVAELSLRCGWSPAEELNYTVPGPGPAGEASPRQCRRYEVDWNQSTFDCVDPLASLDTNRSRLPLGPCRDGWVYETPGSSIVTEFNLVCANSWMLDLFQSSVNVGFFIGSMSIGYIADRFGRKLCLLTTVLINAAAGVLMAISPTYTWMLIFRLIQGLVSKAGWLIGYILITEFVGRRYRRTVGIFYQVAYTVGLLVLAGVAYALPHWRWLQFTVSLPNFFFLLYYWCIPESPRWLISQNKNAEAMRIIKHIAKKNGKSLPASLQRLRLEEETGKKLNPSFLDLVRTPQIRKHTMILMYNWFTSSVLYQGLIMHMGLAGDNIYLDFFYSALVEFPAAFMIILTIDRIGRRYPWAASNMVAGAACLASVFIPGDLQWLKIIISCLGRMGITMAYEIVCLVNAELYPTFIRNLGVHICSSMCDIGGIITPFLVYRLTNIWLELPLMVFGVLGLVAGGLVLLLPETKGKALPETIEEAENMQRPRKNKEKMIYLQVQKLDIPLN
The data set can be described thus: [14C]-lesinurad uptake, substrate test, hOCT2 MDCK-II cells.

The target of data set [4] is T4, OCT1 (Homo sapiens, UniProt O15245).
T4 sequence (O15245 1-554): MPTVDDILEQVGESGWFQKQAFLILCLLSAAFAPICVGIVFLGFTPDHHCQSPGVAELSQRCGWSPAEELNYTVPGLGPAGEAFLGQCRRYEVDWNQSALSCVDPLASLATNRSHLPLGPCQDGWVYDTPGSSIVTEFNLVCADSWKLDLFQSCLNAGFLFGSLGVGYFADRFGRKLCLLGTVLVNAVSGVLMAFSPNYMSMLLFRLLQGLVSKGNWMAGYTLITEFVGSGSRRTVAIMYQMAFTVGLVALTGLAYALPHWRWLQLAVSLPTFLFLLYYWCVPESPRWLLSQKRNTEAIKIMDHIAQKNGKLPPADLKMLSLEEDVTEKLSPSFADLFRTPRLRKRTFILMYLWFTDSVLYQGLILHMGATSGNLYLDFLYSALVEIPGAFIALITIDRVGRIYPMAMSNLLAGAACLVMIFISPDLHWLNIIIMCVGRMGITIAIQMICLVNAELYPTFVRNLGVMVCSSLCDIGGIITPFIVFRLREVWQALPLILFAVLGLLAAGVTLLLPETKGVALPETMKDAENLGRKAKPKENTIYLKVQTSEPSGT
The data set can be described thus: [14C]-lesinurad uptake, substrate test, hOCT1 MDCK-II cells.

Data set [5] concerns the target T5, BCRP (Homo sapiens, UniProt Q9UNQ0).
T5 sequence (Q9UNQ0 1-655): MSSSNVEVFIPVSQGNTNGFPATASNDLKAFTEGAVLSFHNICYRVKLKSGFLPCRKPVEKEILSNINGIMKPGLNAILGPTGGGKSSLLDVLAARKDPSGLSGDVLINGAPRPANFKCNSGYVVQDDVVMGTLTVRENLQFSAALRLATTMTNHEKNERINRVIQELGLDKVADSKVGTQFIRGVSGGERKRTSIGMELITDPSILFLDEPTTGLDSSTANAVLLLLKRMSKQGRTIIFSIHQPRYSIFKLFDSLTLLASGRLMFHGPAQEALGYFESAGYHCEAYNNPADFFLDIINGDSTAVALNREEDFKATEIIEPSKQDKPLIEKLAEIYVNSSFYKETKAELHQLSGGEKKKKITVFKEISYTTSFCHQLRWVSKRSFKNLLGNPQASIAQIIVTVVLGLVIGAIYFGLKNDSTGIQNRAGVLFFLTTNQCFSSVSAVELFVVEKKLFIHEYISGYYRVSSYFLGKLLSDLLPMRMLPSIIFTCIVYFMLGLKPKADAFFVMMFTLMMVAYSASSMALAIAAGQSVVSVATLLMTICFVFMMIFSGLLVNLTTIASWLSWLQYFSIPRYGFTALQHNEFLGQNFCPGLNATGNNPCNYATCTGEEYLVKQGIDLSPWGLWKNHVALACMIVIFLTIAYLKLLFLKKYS
In words: [14C]-lesinurad substrate test, BCRP in Caco-2 cells.

The target of data set [6] is P-gp (Homo sapiens, UniProt P08183). The data set can be described thus: [14C]-lesinurad substrate test, MDCK-MDR1 cells.
Sequence of P-gp (P08183 whole entry): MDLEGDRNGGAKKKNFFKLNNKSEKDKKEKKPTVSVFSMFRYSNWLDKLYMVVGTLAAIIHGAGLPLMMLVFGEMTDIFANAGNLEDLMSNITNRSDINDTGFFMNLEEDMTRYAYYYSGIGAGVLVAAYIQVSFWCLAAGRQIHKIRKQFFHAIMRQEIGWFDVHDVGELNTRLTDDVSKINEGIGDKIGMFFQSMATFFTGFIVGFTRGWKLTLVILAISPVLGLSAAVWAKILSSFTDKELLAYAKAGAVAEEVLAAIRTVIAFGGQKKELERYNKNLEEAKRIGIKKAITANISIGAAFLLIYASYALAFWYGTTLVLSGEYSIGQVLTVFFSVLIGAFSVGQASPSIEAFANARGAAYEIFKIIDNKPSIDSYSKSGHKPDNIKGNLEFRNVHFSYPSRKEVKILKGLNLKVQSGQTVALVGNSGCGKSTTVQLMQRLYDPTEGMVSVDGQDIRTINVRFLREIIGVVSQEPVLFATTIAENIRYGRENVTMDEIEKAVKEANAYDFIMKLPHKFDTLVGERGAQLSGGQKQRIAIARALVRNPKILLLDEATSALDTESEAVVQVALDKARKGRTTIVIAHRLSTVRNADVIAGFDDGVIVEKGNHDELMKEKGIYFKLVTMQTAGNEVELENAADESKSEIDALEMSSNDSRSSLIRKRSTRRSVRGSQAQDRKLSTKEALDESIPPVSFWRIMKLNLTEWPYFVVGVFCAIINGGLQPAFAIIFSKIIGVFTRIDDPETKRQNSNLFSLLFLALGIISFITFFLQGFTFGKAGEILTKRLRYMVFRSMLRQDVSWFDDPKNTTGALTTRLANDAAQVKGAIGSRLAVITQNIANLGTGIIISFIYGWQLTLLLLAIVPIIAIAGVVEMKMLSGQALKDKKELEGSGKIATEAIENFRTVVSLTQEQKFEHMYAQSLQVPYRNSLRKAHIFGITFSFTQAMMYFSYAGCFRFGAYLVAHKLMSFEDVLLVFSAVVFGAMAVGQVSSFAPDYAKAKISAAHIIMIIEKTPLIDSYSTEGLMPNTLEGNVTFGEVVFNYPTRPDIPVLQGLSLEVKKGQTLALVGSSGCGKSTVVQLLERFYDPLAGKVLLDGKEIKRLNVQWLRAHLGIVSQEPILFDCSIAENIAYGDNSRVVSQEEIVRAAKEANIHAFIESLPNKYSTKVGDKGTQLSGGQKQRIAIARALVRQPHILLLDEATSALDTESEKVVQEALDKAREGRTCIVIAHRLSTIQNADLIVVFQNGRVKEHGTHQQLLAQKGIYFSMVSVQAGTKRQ

As to `O=C(O)CSc1nnc(Br)n1-c1ccc(C2CC2)c2ccccc12` [lesinurad], the Lesinurad as substrate result in data set [1] is given as “substrate”; in data set [2], “substrate”; in data set [3], “not a substrate”; in data set [4], “weak substrate”; in data set [5], “minor substrate”; in data set [6], “not a substrate”.
